Data reported in patent US4386103A, “Dichloroamino acid derivatives useful as potent germicidal and fungicidal agents” (Merck & Co., Inc., priority 1981, dated 1983).

Tests used:
Type in all cases: cell-based
[1] = test system: Bacillus subtilis; assay: Contact germicidal screen, Bacillus subtilis ATCC No. 60511
Procedure: (§1) The organisms used in the contact germicidal screen are all maintained as stock cultures on nutrient agar […] 4° C. They are transferred and biochemically diagnosed monthly. The five organisms used are: The media used are: […] Overnight cultures of the test organisms are grown in tryptose phosphate broth. After 15-16 hours, the cultures are centrifuged at […] for 15 minutes, and the supernatant replaced with fresh warm (37° C.) media. After two hours of incubation, the absorbance of the culture at 650 nm is determined and diluted with nutrient broth to 1×10^7 colony forming units per ml (using a previous determined standard curve: colony forming units/ml vs. absorbance at 650). The diluted cultures are maintained at 4°-8° C. throughout the screen. The compounds are weighed into sterile 100 ml volumetric flasks, and immediately before screening dissolved in one of the following buffers: 0.1 M NaOAc pH 4.6 or 0.1 M NaH2 PO4 pH 7.0. If solubility poses a problem, 10-30% methanol is used to effect solution. Two denaturing agents are also tested: […] Horse Serum restored with 100 ml distilled water and 10% Trition×100. When used, 2.5 ml of the denaturing agent is mixed with 2.5 ml of double strength test solution thirty minutes before the bacterial suspension is added. The screen is initiated when 0.2 ml of the bacterial suspension is added to 5.0 ml of the test solution contained in a sterile 25 ml glass stoppered flask. At intervals of 0.5, 2.5, 5.0, 10.0 and 15.0 minutes, a loopful of the inoculated test solution is subcultured into 5 ml of sterile nutrient broth and mixed with a vortex, the high dilution serving to stop the action of the compound. All of the subculture tubes are incubated at 37° C. and checked for signs of growth by turbidity at 1, 3, 5 and 7 days. The earliest subculture time at which no growth is present is considered the endpoint and is recorded as the sterilization time. An aliquot of 0.2 ml of the diluted culture is transferred to 5 ml of buffer to simulate 0.2 ml in 5 ml of test solution. (a) Purity: A loopful of the inoculated buffer is streaked onto nutrient agar to check colony morphology and lack of contaminants. (b) Viability: A loopful of the inoculated buffer is subcultured to 5 ml of nutrient broth as in the screen and incubated at 37° C. for 24 hours. (c) Dilution of the Test Solution: A loopful of the test solution is transferred to a 5 ml tube of nutrient broth, and a loopful of the inoculated buffer is transferred to the same tube of broth. […] (d) Purity of Organisms in the Test Solution: After the 15 minute subculture, a loopful of the inoculated test solution is streaked onto nutrient agar to insure that contamination has not occurred during the screen. (e) lack of Bactericidal Activity of Buffers and Other Solvents: Before a buffer or other solvent is used as a diluent, it is screened against the five organisms to insure that the buffer or solvent has no antibacterial activity itself.

[2] = test system: Pseudamonas aeruginosa; assay: Contact germicidal screen, Pseudamonas aeruginosa ATCC No. 14502
Procedure: as §1

[3] = test system: Candida albican; assay: Contact fungicidal screen, Candida albican; details: 0.1M NaOAc pH 4.6
Procedure, shortened: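 C. albicans suspension (5×10^6 cells/ml, 0.5 ml) added to 5 ml compound in 0.1 M NaOAc pH 4.6 buffer. Loopfuls subcultured into fluid Sabouraud's medium at 0.5, 2.5, 5.0, 10.0 and 15.0 min, incubated ten days at 25°-30° C; endpoint is the earliest subculture time without growth (sterilization time).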

[4] = 10.0+ PPM, 0.1M NaOAc pH 4.6, screened simultaneously with four other compounds
[5] = 291.4 PPM, Triton X100 (10% solution):pH 4.6 buffer 1:1
[6] = 291.4 PPM, horse serum:pH 4.6 buffer 1:1
[7] = 300 PPM with 50% Horse Serum, 0.1M NaOAc pH 4.6
[8] = 300 PPM with 50% Triton X100, 0.1M NaOAc pH 4.6
[9] = 1000 PPM with 50% Horse Serum, 0.1M NaOAc pH 4.6
[10] = 1024.4 PPM, 0.1M NaH2PO4 pH 7.0
[11] = 1042.0 PPM, horse serum:pH 4.6 buffer 1:1

CC(C)(COC(=O)CCCC(=O)O)N(Cl)Cl [(V), 2-dichloramino-2-methylpropyl-hemiglutarate]
Sterilization Time [1, 4]: 2.5 min | Sterilization Time ([1]; 10.0 PPM, 0.1M NaH2PO4 pH 7.0): 15 min | Sterilization Time (summary) ([1]; 10 PPM, 0.1M NaOAc pH 4.6): 2.5 min | Sterilization Time ([1]; 10.0 PPM, 0.1M NaOAc pH 4.6): 5.0 min | Sterilization Time ([1]; 99.1 PPM, 0.1M NaOAc pH 4.6): 2.5 min | Sterilization Time (summary) ([1]; 100 PPM, 0.1M NaOAc pH 4.6): 2.5 min | Sterilization Time ([1]; 106.7 PPM, 0.1M NaH2PO4 pH 7.0): 10.0 min | Sterilization Time [1, 5]: 0.5 min | Sterilization Time [1, 6]: 5.0 min | Sterilization Time (summary) [1, 7]: 5.0 min | Sterilization Time (summary) [1, 8]: 0.5 min | Sterilization Time ([1]; 911.8 PPM, 0.1M NaOAc pH 4.6): 0.5 min | Sterilization Time (summary) [1, 9]: 0.5 min | Sterilization Time (summary) ([1]; 1000 PPM, 0.1M NaOAc pH 4.6): 0.5 min | Sterilization Time [1, 10]: 2.5 min | Sterilization Time [1, 11]: 0.5 min | Sterilization Time [2, 4]: 5.0 min | Sterilization Time ([2]; 10.0 PPM, 0.1M NaH2PO4 pH 7.0): 15 min | Sterilization Time (summary) ([2]; 10 PPM, 0.1M NaOAc pH 4.6): 5.0 min | Sterilization Time ([2]; 10.0 PPM, 0.1M NaOAc pH 4.6): 10.0 min | Sterilization Time ([2]; 99.1 PPM, 0.1M NaOAc pH 4.6): 2.5 min | Sterilization Time (summary) ([2]; 100 PPM, 0.1M NaOAc pH 4.6): 2.5 min | Sterilization Time ([2]; 106.7 PPM, 0.1M NaH2PO4 pH 7.0): 15 min | Sterilization Time [2, 5]: 2.5 min | Sterilization Time [2, 6]: 15 min | Sterilization Time (summary) [2, 7]: 15 min | Sterilization Time (summary) [2, 8]: 2.5 min | Sterilization Time ([2]; 911.8 PPM, 0.1M NaOAc pH 4.6): 0.5 min | Sterilization Time (summary) [2, 9]: 10.0 min | Sterilization Time (summary) ([2]; 1000 PPM, 0.1M NaOAc pH 4.6): 0.5 min | Sterilization Time [2, 10]: 15 min | Sterilization Time [2, 11]: 10.0 min | Sterilization Time ([3]; 10 PPM): 15 min | Sterilization Time ([3]; 100 PPM): 15 min | Sterilization Time ([3]; 1000 PPM): 0.5 min
